Tests used:
Candida albicans = assay: Inhibition zone, agar plate diffusion; type: cell-based; conditions: Ca, mm ± standard deviation, sample at 0.5 mg/mL, read-out: Inhibition zone (IZ)
Method: (§1) Antimicrobial activities of the newly formed Schiff bases (6a–d, 7a–d, 8a–d, and 9a–d) and reference drugs were evaluated against three Gram-positive, three Gram-negative, and two fungi strain at Al-Azhar University, Cairo, Egypt. The inhibition zones (IZ, in mm ± standard deviation) and the minimal inhibitory concentration (MIC) (μg/mL) were determined by the conventional paper disk diffusion method.
(§2) In Vitro Antimicrobial Activities
(§3) The antimicrobial activities inhibition zone (IZ, mm±standard deviation) of pyrazole Schiff bases ( 6a-d , 7a-d, 8a-d and 9a-d ) was measurement according to the agar plate diffusion method. Briefly, 100 µl of the […]
(§4) […] of each sample (at 0.5 mg/mL) was added to each well (10 mm diameter holes cut in the agar gel). The plates were incubated for 24 h at 37 °C (for bacteria and yeast) and for 72 h at 27 °C (for filamentous fungi), each test was repeated three times. After incubation, the microorganism's growth was observed. […]
(§5) drugs while Amphotericin B was used as standard antifungal drug. The resulting inhibition zone diameters were measured in millimeters and used as criterion for the antimicrobial activity. Solvent controls (DMSO) were included in every experiment as negative controls. DMSO was used for dissolving […]
(§6) the tested microorganisms. […]
(§7) Bacteria were grown on nutrient agar medium, while fungi and yeast were grown on Sabouraud agar medium. […]

Fusarium oxysporum = assay: Inhibition zone, agar plate diffusion; type: cell-based; conditions: Fo, mm ± standard deviation, sample at 0.5 mg/mL, read-out: Inhibition zone (IZ)
Method: as §1, §2, §3, §4, §5, §6, §7

Salmonella typhi = assay: Inhibition zone, agar plate diffusion; type: cell-based; conditions: Salmonella enterica, St, mm ± standard deviation, sample at 0.5 mg/mL, read-out: Inhibition zone (IZ)
Method: as §1, §2, §3, §4, §5, §6, §7

Staphylococcus aureus = assay: Inhibition zone, agar plate diffusion; type: cell-based; conditions: Sa, mm ± standard deviation, sample at 0.5 mg/mL, read-out: Inhibition zone (IZ)
Method: as §1, §2, §3, §4, §5, §6, §7

Escherichia coli = assay: Inhibition zone, agar plate diffusion; type: cell-based; conditions: Ec, mm ± standard deviation, sample at 0.5 mg/mL, read-out: Inhibition zone (IZ)
Method: as §1, §2, §3, §4, §5, §6

Pseudomonas aeruginosa = assay: Inhibition zone, agar plate diffusion; type: cell-based; conditions: Pa, mm ± standard deviation, sample at 0.5 mg/mL, read-out: Inhibition zone (IZ)
Method: as §1, §2, §3, §4, §5, §6

Bacillus subtilis = assay: Inhibition zone, agar plate diffusion; type: cell-based; conditions: Bs, mm ± standard deviation, sample at 0.5 mg/mL, read-out: Inhibition zone (IZ)
Method: as §1, §2, §3, §4, §5, §6

Enterococcus faecalis = assay: Inhibition zone, agar plate diffusion; type: cell-based; conditions: Ef, mm ± standard deviation, sample at 0.5 mg/mL, read-out: Inhibition zone (IZ)
Method: as §1, §2, §3, §4, §5, §6

SMILES	melting point [°C]	zone of inhibition at 500 µg/mL (Candida albicans) [mm]	zone of inhibition at 500 µg/mL (Fusarium oxysporum) [mm]	zone of inhibition at 500 µg/mL (Salmonella typhi) [mm]	zone of inhibition at 500 µg/mL (Staphylococcus aureus) [mm]	zone of inhibition at 500 µg/mL (Escherichia coli) [mm]	zone of inhibition at 500 µg/mL (Pseudomonas aeruginosa) [mm]	zone of inhibition at 500 µg/mL (Bacillus subtilis) [mm]	zone of inhibition at 500 µg/mL (Enterococcus faecalis) [mm]
COc1ccc(Nc2n[nH]c(N=Cc3cc(OC)c(OC)c(OC)c3)c2C(N)=O)cc1 [9a, 3-(p-Methoxyphenylamino)-5-(3,4,5-trimethoxybenzylideneamino)-1H-pyrazole-4-carboxamide]	222 to 224	22 ± 0.19	19 ± 0.55	20 ± 0.33	21 ± 0.17	22 ± 0.18	17 ± 0.2	25 ± 0.21	19 ± 0.14
COc1ccc(Nc2n[nH]c(N=Cc3cc(OC)c(OC)c(OC)c3)c2C(=O)Nc2ccc(Cl)cc2)cc1 [9d, N-(p-Chlorophenyl)-3-(p-methoxyphenylamino)-5-(3,4,5-trimethoxybenzylideneamino)-1H-pyrazole-4-carboxamide]	213 to 215	18 ± 0.2	14 ± 0.38	12 ± 0.61	16 ± 0.54	15 ± 0.96	< 8	18 ± 0.12	< 8
COc1ccc(Nc2n[nH]c(N=Cc3cc(OC)c(OC)c(OC)c3)c2C(=O)Nc2ccc(C)cc2)cc1 [9c, 3-(p-Methoxyphenylamino)-N-p-tolyl-5-(3,4,5-trimethoxybenzylideneamino)-1H-pyrazole-4-carboxamide]	234 to 236	21 ± 0.5	19 ± 0.28	23 ± 0.33	22 ± 0.34	23 ± 0.44	< 8	22 ± 0.18	21 ± 0.72
